Experimental data reported in US10227357B2, “Compounds and methods for kinase modulation, and indications therefor” (Plexxikon Inc., priority 2012, dated 2019).

Molecular target: T1, c-kit mutant D816V (Homo sapiens, UniProt P10721, D816V/DEL694-753)
T1 construct: residues 551-934, kinase insertion domain residues 694-753 deleted; 6x-histidine (N); made in house; host or cells: E. coli Arctic Express (DE3) RIL (Stratagene)
Assay: c-Kit mutant D816V biochemical assay, AlphaScreen
Conditions: c-kit D816V biochemical inhibitory activity; read-out: Biochemical activity (IC50 μM) Kit D816V
Outline: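 Eight-point, threefold compound series incubated 30 min at room temperature with E. coli-produced D816V kinase, 10 μM ATP, Mg2+/Mn2+ HEPES buffer pH 7.2 and 5% DMSO. After EDTA stop, streptavidin and anti-phosphotyrosine (PY20) AlphaScreen beads gave the read-out, and IC50 was fitted from the concentration–signal curve.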

T1 sequence (P10721 with tags, fused parts or gaps DEL694-753/D816V): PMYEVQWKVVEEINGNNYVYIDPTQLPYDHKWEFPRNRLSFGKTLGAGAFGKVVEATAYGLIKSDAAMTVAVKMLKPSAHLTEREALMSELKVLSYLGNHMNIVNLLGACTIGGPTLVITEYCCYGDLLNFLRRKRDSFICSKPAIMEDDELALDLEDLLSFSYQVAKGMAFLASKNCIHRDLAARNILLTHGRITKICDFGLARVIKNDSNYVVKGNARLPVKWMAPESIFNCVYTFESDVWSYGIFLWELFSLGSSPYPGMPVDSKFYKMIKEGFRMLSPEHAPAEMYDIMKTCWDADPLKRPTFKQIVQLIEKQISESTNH

Row | Compound | IC50
1 | COc1cccc(NC(=O)N2CCN(c3ncnc4[nH]cc(-c5ccccc5)c34)CC2)c1 [P-0228, N-(3-methoxyphenyl)-4-(5-phenyl-7H-pyrrolo[2,3-d]pyrimidin-4-yl)piperazine-1-carboxamide] | 1 to 10 µM
2 | O=C(NCc1ccc(F)cc1)NC1CCN(c2ncnc3[nH]ccc23)CC1 [P-0509, 1-[(4-fluorophenyl)methyl]-3-[1-(7H-pyrrolo[2,3-d]pyrimidin-4-yl)-4-piperidyl]urea] | 10 to 200 µM
3 | O=C(NCc1cccc(F)c1)N1CCN(c2ncnc3[nH]ccc23)CC1 [P-0163, N-[(3-fluorophenyl)methyl]-4-(7H-pyrrolo[2,3-d]pyrimidin-4-yl)piperazine-1-carboxamide] | 10 to 200 µM
4 | NS(=O)(=O)c1ccc(-c2ncnc3[nH]c(-c4ccc(F)cc4)cc23)c(F)c1 [P-0376, 3-fluoro-4-[6-(4-fluorophenyl)-7H-pyrrolo[2,3-d]pyrimidin-4-yl]benzenesulfonamide] | 0.0001 to 1 µM
5 | O=C(NCc1cccc(OC(F)F)c1)N1CCN(c2ncnc3[nH]c(-c4ccc(Cl)cc4)cc23)CC1 [P-0037, 4-[6-(4-chlorophenyl)-7H-pyrrolo[2,3-d]pyrimidin-4-yl]-N-[[3-(difluoromethoxy)phenyl]methyl]piperazine-1-carboxamide] | 1 to 10 µM
6 | CCNC(=O)N1CCN(c2ncnc3[nH]c(-c4ccc(F)cc4)cc23)CC1 [P-0088, N-ethyl-4-[6-(4-fluorophenyl)-7H-pyrrolo[2,3-d]pyrimidin-4-yl]piperazine-1-carboxamide] | 1 to 10 µM
7 | O=C(NCc1cccc(OC(F)F)c1)N1CCN(c2ncnc3[nH]c(-c4ccc(F)cc4)cc23)CC1 [P-0073, N-[[3-(difluoromethoxy)phenyl]methyl]-4-[6-(4-fluorophenyl)-7H-pyrrolo[2,3-d]pyrimidin-4-yl]piperazine-1-carboxamide] | 1 to 10 µM
8 | O=S(=O)(Nc1ccc(F)cc1)c1ccc(-c2ncnc3[nH]c(-c4ccc(F)cc4)cc23)cc1 [P-0428, N-(4-fluorophenyl)-4-[6-(4-fluorophenyl)-7H-pyrrolo[2,3-d]pyrimidin-4-yl]benzenesulfonamide] | 0.0001 to 1 µM
9 | O=S(=O)(Nc1ccc(-c2ncnc3[nH]c(-c4ccc(F)cc4)cc23)cc1F)N1CCCC1 [P-0405, N-[2-fluoro-4-[6-(4-fluorophenyl)-7H-pyrrolo[2,3-d]pyrimidin-4-yl]phenyl]pyrrolidine-1-sulfonamide] | 10 to 200 µM
10 | CCCS(=O)(=O)Nc1ccc(-c2ncnc3cc(OC)c(OC)cc23)cc1F [P-0275, N-[4-(6,7-dimethoxyquinazolin-4-yl)-2-fluoro-phenyl]propane-1-sulfonamide] | 1 to 10 µM
11 | COc1cc2ncnc(-c3ccc(NS(=O)(=O)N4CCCC4)c(F)c3)c2cc1OC [P-0274, N-[4-(6,7-dimethoxyquinazolin-4-yl)-2-fluoro-phenyl]pyrrolidine-1-sulfonamide] | 1 to 10 µM
12 | O=S(=O)(NCc1ccccc1)c1ccc(-c2ncnc3cc(-c4ccc(F)cc4)sc23)cc1 [P-0635, N-benzyl-4-[6-(4-fluorophenyl)thieno[3,2-d]pyrimidin-4-yl]benzenesulfonamide] | 0.0001 to 1 µM
13 | O=S(=O)(Nc1cccc(-c2ncnc3[nH]c(-c4cnc(C5CC5)nc4)cc23)c1)C1CC1 [P-0383, N-[3-[6-(2-cyclopropylpyrimidin-5-yl)-7H-pyrrolo[2,3-d]pyrimidin-4-yl]phenyl]cyclopropanesulfonamide] | 10 to 200 µM
14 | COc1cc2ncnc(-c3ccc(NS(C)(=O)=O)c(F)c3)c2cc1OC [P-0272, N-[4-(6,7-dimethoxyquinazolin-4-yl)-2-fluoro-phenyl]methanesulfonamide] | 0.0001 to 1 µM
15 | CCCn1cc(S(=O)(=O)NC2CCN(c3ncnc4[nH]c(-c5cnn(C)c5)cc34)CC2)cn1 [P-0484, N-[1-[6-(1-methylpyrazol-4-yl)-7H-pyrrolo[2,3-d]pyrimidin-4-yl]-4-piperidyl]-1-propyl-pyrazole-4-sulfonamide] | 1 to 10 µM
16 | Cc1cc2c(C3=CCC(NS(=O)(=O)c4ccc(OC(F)F)cc4)CC3)ncnc2[nH]1 (centres unmarked) [P-0653, 4-(difluoromethoxy)-N-[4-(6-methyl-7H-pyrrolo[2,3-d]pyrimidin-4-yl)cyclohex-3-en-1-yl]benzenesulfonamide] | 1 to 10 µM
17 | Cc1cc2c(-c3ccc(NS(=O)(=O)c4ccc(Cl)c(Cl)c4)cc3)ncnc2[nH]1 [P-0316, 3,4-dichloro-N-[4-(6-methyl-7H-pyrrolo[2,3-d]pyrimidin-4-yl)phenyl]benzenesulfonamide] | 1 to 10 µM
18 | O=C(NCc1ccc(Cl)cc1)N1CCN(c2ncnc3[nH]c(Cl)cc23)CC1 [P-0139, N-[(4-chlorophenyl)methyl]-4-(6-chloro-7H-pyrrolo[2,3-d]pyrimidin-4-yl)piperazine-1-carboxamide] | 1 to 10 µM

Row | Compound | IC50
19 | CC(C)Oc1ccc(S(=O)(=O)NC2CCN(c3ncnc4[nH]c(-c5ccc(Cl)cc5)cc34)CC2)cc1 [P-0468, N-[1-[6-(4-chlorophenyl)-7H-pyrrolo[2,3-d]pyrimidin-4-yl]-4-piperidyl]-4-isopropoxy-benzenesulfonamide] | 0.0001 to 1 µM
20 | COc1cccc([C@@H](C)NC(=O)N2CCN(c3ncnc4[nH]c(-c5ccc(Cl)cc5)cc34)C[C@H]2C)c1 [P-0025, (2R)-4-[6-(4-chlorophenyl)-7H-pyrrolo[2,3-d]pyrimidin-4-yl]-N-[(1R)-1-(3-methoxyphenyl)ethyl]-2-methyl-piperazine-1-carboxamide] | 10 to 200 µM
21 | Cc1cc2c(-c3ccc(NS(=O)(=O)c4ccc(C(F)(F)F)cn4)cc3)ncnc2[nH]1 [P-0312, N-[4-(6-methyl-7H-pyrrolo[2,3-d]pyrimidin-4-yl)phenyl]-5-(trifluoromethyl)pyridine-2-sulfonamide] | 1 to 10 µM
22 | O=C(Nc1ccc(OC(F)(F)F)cc1)NC1CCN(c2ncnc3[nH]ccc23)CC1 [P-0513, 1-[1-(7H-pyrrolo[2,3-d]pyrimidin-4-yl)-4-piperidyl]-3-[4-(trifluoromethoxy)phenyl]urea] | 10 to 200 µM
23 | O=S(=O)(Nc1ccc(-c2ncnc3[nH]c(-c4ccc(F)cc4)cc23)cc1)N1CCCC1 [P-0411, N-[4-[6-(4-fluorophenyl)-7H-pyrrolo[2,3-d]pyrimidin-4-yl]phenyl]pyrrolidine-1-sulfonamide] | 1 to 10 µM
24 | Cn1cc(-c2cc3c(N4CCC(NS(=O)(=O)c5cccc(OC(F)(F)F)c5)CC4)ncnc3[nH]2)cn1 [P-0500, N-[1-[6-(1-methylpyrazol-4-yl)-7H-pyrrolo[2,3-d]pyrimidin-4-yl]-4-piperidyl]-3-(trifluoromethoxy)benzenesulfonamide] | 10 to 200 µM
25 | Cc1ccc(C(C)NC(=O)N2CCN(c3ncnc4cc(-c5ccc(F)cc5)sc34)CC2)s1 (centres unmarked) [P-0703, 4-[6-(4-fluorophenyl)thieno[3,2-d]pyrimidin-4-yl]-N-[1-(5-methyl-2-thienyl)ethyl]piperazine-1-carboxamide] | 0.0001 to 1 µM
26 | C[C@H](NC(=O)N1CCN(c2ncnc3[nH]c(-c4ccc(C#N)cc4)cc23)CC1(C)C)c1ccc(Cl)cc1 [P-0686, N-[(1S)-1-(4-chlorophenyl)ethyl]-4-[6-(4-cyanophenyl)-7H-pyrrolo[2,3-d]pyrimidin-4-yl]-2,2-dimethyl-piperazine-1-carboxamide] | 10 to 200 µM
27 | Cc1ccc([C@H](C)NC(=O)N2CCN(c3ncnc4[nH]c(-c5ccc(F)cc5)cc34)CC2)cc1 [P-0713, 4-[6-(4-fluorophenyl)-7H-pyrrolo[2,3-d]pyrimidin-4-yl]-N-[(1S)-1-(p-tolyl)ethyl]piperazine-1-carboxamide] | 0.0001 to 1 µM
28 | O=S(=O)(Nc1ccc(-c2ncnc3[nH]c(-c4ccc(F)cc4)cc23)c(F)c1)N1CCCC1 [P-0400, N-[3-fluoro-4-[6-(4-fluorophenyl)-7H-pyrrolo[2,3-d]pyrimidin-4-yl]phenyl]pyrrolidine-1-sulfonamide] | 1 to 10 µM
29 | O=C(Nc1ccc(F)cc1)N1CC2CCC1CN2c1ncnc2cc(-c3ccc(F)cc3)sc12 (centres unmarked) [P-0546, N-(4-fluorophenyl)-5-[6-(4-fluorophenyl)thieno[3,2-d]pyrimidin-4-yl]-2,5-diazabicyclo[2.2.2]octane-2-carboxamide] | 1 to 10 µM
30 | COc1cccc([C@H](C)NC(=O)N2CCN(c3ncnc4[nH]c(-c5ccncc5)cc34)C[C@@H]2C)c1 [P-0051, (2S)-N-[(1S)-1-(3-methoxyphenyl)ethyl]-2-methyl-4-[6-(4-pyridyl)-7H-pyrrolo[2,3-d]pyrimidin-4-yl]piperazine-1-carboxamide] | 0.0001 to 1 µM
31 | CC(NC(=O)N1CCN(c2ncnc3[nH]c(-c4ccc(Cl)cc4)cc23)C[C@H]1C)c1ccc(Cl)cc1 (stereo in doubt) [P-0021, (2R)-N-[(1S)-1-(4-chlorophenyl)ethyl]-4-[6-(4-chlorophenyl)-7H-pyrrolo[2,3-d]pyrimidin-4-yl]-2-methyl-piperazine-1-carboxamide] | 1 to 10 µM
32 | O=C(Nc1ccc(F)c(Cl)c1)NC1CCN(c2ncnc3[nH]ccc23)CC1 [P-0512, 1-(3-chloro-4-fluoro-phenyl)-3-[1-(7H-pyrrolo[2,3-d]pyrimidin-4-yl)-4-piperidyl]urea] | 10 to 200 µM
33 | O=C(NCCc1ccc(F)cc1)NC1CCN(c2ncnc3[nH]ccc23)CC1 [P-0511, 1-[2-(4-fluorophenyl)ethyl]-3-[1-(7H-pyrrolo[2,3-d]pyrimidin-4-yl)-4-piperidyl]urea] | 10 to 200 µM
34 | O=C(Nc1ccc(C(F)(F)F)cc1)NC1CCN(c2ncnc3[nH]ccc23)CC1 [P-0514, 1-[1-(7H-pyrrolo[2,3-d]pyrimidin-4-yl)-4-piperidyl]-3-[4-(trifluoromethyl)phenyl]urea] | 10 to 200 µM
35 | O=S(=O)(NN1CCN(c2ncnc3[nH]c(-c4ccc(F)cc4)cc23)CC1)c1ccc(OC(F)(F)F)cc1 [P-0026, N-[4-[6-(4-fluorophenyl)-7H-pyrrolo[2,3-d]pyrimidin-4-yl]piperazin-1-yl]-4-(trifluoromethoxy)benzenesulfonamide] | 10 to 200 µM
